Assay results published in the supplement of paper PMC6045584.

Tests used:
Assay in all cases: area under dose-response curve of surviving fraction (unscaled, Aref=0) (surviving fraction x log10(nM)); higher = more resistant
Conditions in all cases: exposure time: 5 days; dose range 0.5-1000 nM
BLEOMYCIN = compound: Cc1c(N)nc([C@H](CC(N)=O)NC[C@H](N)C(N)=O)nc1C(=O)N[C@H](C(=O)N[C@H](C)[C@@H](O)[C@H](C)C(=O)N[C@H](C(=O)NCCc1nc(-c2nc(C(=O)NCCC[S+](C)C)cs2)cs1)[C@@H](C)O)[C@@H](OC1OC(CO)C(O)C(O)C1OC1OC(CO)C(O)C(OC(N)=O)C1O)c1cnc[nH]1 [BLEOMYCIN]
Outline: (§1)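 Inhibitor was applied to tumour cell lines at eight concentrations (0.5 to 1000 nM) for five days in 384-well plates. Luminescence from CellTiter-Glo, scaled to DMSO-only wells, gave surviving fractions in three screens per line, and these were fitted by 3-parameter logistic regression with the drc R package. The area under the curve is an unscaled activity area. Aref was 0, and dose was on a log10 scale.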

[1] = compound: COc1ccc(-c2cc3c(C)nc(N)nc3n([C@H]3CC[C@H](OCCO)CC3)c2=O)cn1
Outline: as §1

CABOZANTINIB = compound: COc1cc2nccc(Oc3ccc(NC(=O)C4(C(=O)Nc5ccc(F)cc5)CC4)cc3)c2cc1OC [CABOZANTINIB]
Outline: as §1

VORINOSTAT = compound: O=C(CCCCCCC(=O)Nc1ccccc1)NO [VORINOSTAT]
Outline: as §1

[2] = compound: C[C@@H]1CN(CC(=O)Nc2ccc3c(c2)Cc2cccc(-c4cc(=O)cc(N5CCOCC5)o4)c2S3)C[C@H](C)O1
Outline: as §1

LENVATINIB = compound: COc1cc2nccc(Oc3ccc(NC(=O)NC4CC4)c(Cl)c3)c2cc1C(N)=O [LENVATINIB]
Outline: as §1

MK-1775 = compound: C=CCn1c(=O)c2cnc(Nc3ccc(N4CCN(C)CC4)cc3)nc2n1-c1cccc(C(C)(C)O)n1 [MK-1775]
Outline: as §1

AFIMOXIFENE = compound: CC/C(=C(\c1ccc(O)cc1)c1ccc(OCCN(C)C)cc1)c1ccccc1 [AFIMOXIFENE]
Outline: as §1

[3] = compound: CCc1cc(Nc2nccc(-c3c(-c4ccc(OC)c(C(=O)Nc5c(F)cccc5F)c4)nc4ccccn34)n2)c(OC)cc1N1CCC(N2CCN(S(C)(=O)=O)CC2)CC1
Outline: as §1

BEZ-235 = compound: Cn1c(=O)n(-c2ccc(C(C)(C)C#N)cc2)c2c3cc(-c4cnc5ccccc5c4)ccc3ncc21 [BEZ-235]
Outline: as §1

Test System	area under dose-response curve (BLEOMYCIN)	area under dose-response curve [1]	area under dose-response curve (CABOZANTINIB)	area under dose-response curve (VORINOSTAT)	area under dose-response curve [2]	area under dose-response curve (LENVATINIB)	area under dose-response curve (MK-1775)	area under dose-response curve (AFIMOXIFENE)	area under dose-response curve [3]	area under dose-response curve (BEZ-235)
G292 BONE	2.07	1.89	3.03	3.05	3.2	2.62	2.71	3.18	3.33	2.18
CCK81 LARGE INTESTINE			2.42					2.84		
HMLE3 BREAST	3	2.08	3.06		3.21	3.05	2.87	3.71	3.22	2.13
HMT3552 BREAST								3.53		
HCC70 BREAST	2.77	2.19	3.5	3.13	3.65	3.79	2.24	3.6	3.48	2.57
HS578T BREAST	2.21	1.97	3.18	2.86	2.86		1.96	3.68	2.93	2.13
HCC38 BREAST	2.44	2.96	4.07	4	2.58	3.98	2.33	3.66		2.59
